Source: US20200071326A1, “TAM KINASE INHIBITORS” (Syros Pharmaceuticals, Inc., priority 2017, published 2020)
Structures can show the parent of a compound that is named as a salt.

What was measured:
AXL = biological target: T1, AXL (Homo sapiens, UniProt P30530); assay: IMAP fluorescence polarization kinase assay, AXL; type: biochemical; conditions: ATP 24.7 μM, enzyme 2.5 nM, 240 minutes, read-out: AXL inhibitory constant (Ki)
T1 sequence (P30530 26-894): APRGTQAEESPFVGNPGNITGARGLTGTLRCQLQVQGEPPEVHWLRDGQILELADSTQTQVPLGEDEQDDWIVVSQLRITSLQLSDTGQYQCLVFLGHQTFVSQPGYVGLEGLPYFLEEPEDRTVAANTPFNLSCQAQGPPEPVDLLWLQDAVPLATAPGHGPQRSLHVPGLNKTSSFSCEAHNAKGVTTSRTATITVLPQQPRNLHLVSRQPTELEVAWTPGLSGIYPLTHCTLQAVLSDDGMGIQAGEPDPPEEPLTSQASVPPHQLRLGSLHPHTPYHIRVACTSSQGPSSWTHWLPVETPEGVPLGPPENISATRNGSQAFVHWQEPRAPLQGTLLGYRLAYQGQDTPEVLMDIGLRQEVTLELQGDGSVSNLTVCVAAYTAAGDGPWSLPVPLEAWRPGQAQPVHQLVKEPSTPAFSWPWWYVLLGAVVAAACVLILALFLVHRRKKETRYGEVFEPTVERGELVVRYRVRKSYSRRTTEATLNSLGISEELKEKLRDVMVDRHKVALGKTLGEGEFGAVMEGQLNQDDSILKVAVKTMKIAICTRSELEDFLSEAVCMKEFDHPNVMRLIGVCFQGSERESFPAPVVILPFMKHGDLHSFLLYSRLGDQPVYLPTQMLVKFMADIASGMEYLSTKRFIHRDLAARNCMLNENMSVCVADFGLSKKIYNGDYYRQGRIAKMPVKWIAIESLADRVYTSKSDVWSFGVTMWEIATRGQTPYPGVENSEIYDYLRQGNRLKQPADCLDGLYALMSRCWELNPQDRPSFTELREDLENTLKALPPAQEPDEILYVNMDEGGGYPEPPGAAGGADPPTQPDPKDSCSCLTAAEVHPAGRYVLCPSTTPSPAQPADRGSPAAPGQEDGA
Experimental: (§1) Activities of compounds against each of TYRO3, AXL, and MERTK as well as against FLT3, were determined using an immobilized metal ion affinity-based fluorescence polarization (“IMAP”) assay. A fluorescently-labeled substrate peptide was phosphorylated in the kinase reaction, after which a binding solution containing large trivalent metal-based nanoparticles was added and the phosphorylated substrate binds to these beads. This reduces the rotational speed of the substrate which is then detected using fluorescence polarization as a read-out.
(§2) The substrates used for each enzyme are as follows: AXL: 5F1-KKKKEEIYFFFG-NH2(SEQ ID NO:1); FLT3: 5F1-KKKKEEIYFFF-NH2 (SEQ ID NO:2); MERTK: 5F1-EFPIYDFLPAKKK-NH2 (SEQ ID NO:3); and TYRO3: 5F1-EFPIYDFLPAKKK-NH2 (SEQ ID NO:4).
(§3) This assay was performed in a 384-well, polystyrene microplate in a final volume of 8 μl. Substrate (final concentration=400 nM), ATP (final concentrations=24.7μM for AXL; 2.74 μM for FLT3; 2.69 μM for MERTK; and 54.0 μM for TYRO3), compounds and enzyme (final concentrations=2.5 nM for AXL, FLT3 and TYRO3; 1.5 nM for MERTK) were pipetted in this order into the appropriate reaction buffer (AXL: 50 mM HEPES, pH 8.0, 1 mM DTT, 10 mM MgCl2, 0.01% BRU35, 0.01% Triton X-100; FLT3: 50 mM HEPES, pH 8.0, 1 mM DTT, 10 mM MgCl2, 0.01% Triton X-100, 0.01% NP40; MERTK/TYRO3: 50 mM HEPES, pH 8.0, 1 mM DTT, 10 mM MgCl2, 0.01% Triton X-100) and incubated at room temperature for varying times (AXL, FLT3 and MERTK: 240 minutes; TYRO3: 60 minutes). IMAP binding solution was then dispensed, the plate incubated for 60 minutes at room temperature and the fluorescence polarization measured. Data were analyzed using XLfit.

FLT3 = biological target: T2, FLT3 (Homo sapiens, UniProt P36888); assay: IMAP fluorescence polarization kinase assay, FLT3; type: biochemical; conditions: ATP 2.74 μM, enzyme 2.5 nM, 240 minutes, read-out: FLT3 inhibitory constant (Ki)
T2 sequence (P36888 27-993): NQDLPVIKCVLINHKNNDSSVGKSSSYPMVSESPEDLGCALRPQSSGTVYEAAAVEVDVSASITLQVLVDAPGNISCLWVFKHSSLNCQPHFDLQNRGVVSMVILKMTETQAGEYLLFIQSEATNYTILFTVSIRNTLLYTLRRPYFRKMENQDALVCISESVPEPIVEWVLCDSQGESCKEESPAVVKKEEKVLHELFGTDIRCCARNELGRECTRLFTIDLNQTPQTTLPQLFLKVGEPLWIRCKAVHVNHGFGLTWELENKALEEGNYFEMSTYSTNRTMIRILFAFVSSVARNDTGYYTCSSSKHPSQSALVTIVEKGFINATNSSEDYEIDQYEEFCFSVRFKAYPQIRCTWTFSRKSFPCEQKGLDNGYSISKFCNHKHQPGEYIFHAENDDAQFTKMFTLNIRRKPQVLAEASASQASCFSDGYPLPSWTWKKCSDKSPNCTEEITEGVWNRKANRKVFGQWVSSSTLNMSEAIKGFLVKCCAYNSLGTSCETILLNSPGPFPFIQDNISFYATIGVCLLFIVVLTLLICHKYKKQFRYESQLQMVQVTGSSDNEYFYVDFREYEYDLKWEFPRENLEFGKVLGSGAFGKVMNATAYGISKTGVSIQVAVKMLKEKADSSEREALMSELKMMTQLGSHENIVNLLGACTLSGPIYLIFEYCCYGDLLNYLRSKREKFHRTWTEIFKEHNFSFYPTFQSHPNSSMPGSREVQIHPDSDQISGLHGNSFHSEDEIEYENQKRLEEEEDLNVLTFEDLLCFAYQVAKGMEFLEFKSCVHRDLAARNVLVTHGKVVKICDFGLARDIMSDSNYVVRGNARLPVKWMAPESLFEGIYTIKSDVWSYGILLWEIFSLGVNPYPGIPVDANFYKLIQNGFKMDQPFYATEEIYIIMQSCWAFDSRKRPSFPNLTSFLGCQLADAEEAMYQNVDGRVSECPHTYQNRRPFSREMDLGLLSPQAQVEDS
Experimental: as §1, §2, §3

CCCc1cc2c(N[C@H]3CC[C@H](O)CC3)c(-c3ccc(CNCC45C[C@H]6C[C@@H](C4)C[C@@H](C5)C6)cn3)cnc2[nH]1 [Compound 109]
Ki (AXL): 100 to 1000 nM | Ki (FLT3): < 100 nM

COC(C)c1cc2c(N[C@H]3CC[C@H](N)CC3)c(C(=O)Nc3ccc(F)cc3)cnc2[nH]1 (some centres unmarked) [Compound 145]
Ki (AXL): > 10000 nM | Ki (FLT3): 1000 to 10000 nM

CCC(CC)c1cc2c(N[C@H]3CC[C@H](N)CC3)c(C(=O)Nc3ccc(F)cc3)cnc2[nH]1 [Compound 147]
Ki (AXL): 1000 to 10000 nM | Ki (FLT3): 1000 to 10000 nM

CCC(OC)c1cc2c(N[C@H]3CC[C@H](N)CC3)c(C(=O)Nc3ccc(F)cc3)cnc2[nH]1 (some centres unmarked) [Compound 146]
Ki (AXL): > 10000 nM | Ki (FLT3): 1000 to 10000 nM

CCCc1cc2c(N[C@H]3CC[C@H](O)CC3)c(C(=O)NCc3ccc(-n4ccnc4)cc3)cnc2[nH]1 [Compound 102]
Ki (AXL): 100 to 1000 nM | Ki (FLT3): < 100 nM

N[C@H]1CC[C@H](Nc2c(C(=O)Nc3ccc(F)cc3)cnc3[nH]c(C4CCC4)cc23)CC1 [Compound 138, 4-(((1r,4r)-4-aminocyclohexyl)amino)-2-cyclobutyl-N-(4-fluorophenyl)-1H-pyrrolo[2,3-b]pyridine-5-carboxamide hydrochloride]
Ki (AXL): 1000 to 10000 nM | Ki (FLT3): < 100 nM

COCC(C)c1cc2c(N[C@H]3CC[C@H](N)CC3)c(C(=O)Nc3ccc(F)cc3)cnc2[nH]1 (some centres unmarked) [Compound 155]
Ki (AXL): > 10000 nM | Ki (FLT3): 1000 to 10000 nM
